# From patent publication US20260041093A1, “Ionic Derivatives Of Aromatic Carboxylic Acid For Use As Plant Stimulants, Method For Stimulating Plants And Use Of These Derivatives For Manufacturing Compositions For Stimulating Plants” (FUNDACJA UNIWERSYTETU IM. ADAMA MICKIEWICZA W POZNANIU, priority 2022, published 2026)
# Read-outs that look alike come from different tables or passages of the source.
# What was measured:
# powdery mildew fungus [1] = format: in vivo, tomato; conditions: 80 mg/L, watered twice; 2 weeks after infection
# Description: Tomato plants, at the stage of the first pair of developed true leaves, were watered twice with a solution of substance 1-32 at a concentration of 80 mg/L, at a weekly interval. The control was tomato plants watered only with water. […] The suspension was prepared from culture on solid medium. Protection against biotic stress was evaluated by comparing the area of leaves affected by infection.
# Brome Mosaic Virus (BMV) = assay: Protection of barley against Brome Mosaic Virus infection by watering (Examples 28 and 29); format: in vivo; conditions: 80 mg/L, watered twice; 2 weeks after infection
# TMV [2] = assay: Protection of tobacco against TMV infected 3 weeks after the last treatment (Example 27); format: in vivo; conditions: infected with TMV 3 weeks after the last treatment
# Description: They proceeded as in Example 24, using substances 1-4 at concentrations of 10, 40 and 80 mg/L for treatment, with treated and control plants divided into 3 batches and their leaves infected with the virus 1, 2 and 3 weeks after the last treatment, respectively. […] A similar effect occurred with spraying.
# TMV [3] = assay: Protection of tobacco against TMV, single spray, comparison with BION (Example 26); format: in vivo, Nicotiana tabacum cv. Xanthi; conditions: sprayed once, infected a week later
# Description: Tobacco plants (Nicotiana tabacum) cv. Xanthi at the stage of three developed leaves were sprayed once with solutions of substance 1-5 or BION™ at concentrations of 10, 40, 80 mg/L. A week later, they were mechanically infected with TMV by rubbing the leaves with a square soaked in a suspension of purified virus, with a concentration of about 2 μg/ml. The level of protection against the effects of biotic stress was evaluated by comparing the number of necrotic spots caused by TMV on the leaves of plants treated with substances 1-5 and BION™ and control plants.
# A reduction in the number of necrotic spots indicates protection from the effects of the biotic agent on the plant.
# [4] = test system: Pseudomonas syringae pv. Tomato (Pst); conditions: watered twice, Pst 10^5, 2 weeks after infection
# Description: Tobacco plants at the stage of 3 developed leaves were watered twice, at a weekly interval, with a solution of test substances 1-11 at concentrations of 10, 40, 80 mg/L. The control was tobacco plants watered with water only. One week after the second treatment, a suspension of Pst bacteria at a concentration of 10^5 was spotted into the leaves using an insulin syringe (without a needle). The suspension was prepared from a two-day culture of Pst on solid medium. Protection against biotic stress was evaluated by the proliferation of bacteria in the leaves at the insertion site and the formation of a necrotic spot, compared to the control.
# We proceeded as in Example 30, with the effectiveness of protection against biotic stress tested against bacterial cell concentrations raised to about 10^6.
# powdery mildew fungus [5] = assay: Protection of tomato against powdery mildew by spraying (Example 35); format: in vivo, Lycopersicon Esculentum Mill tomato; conditions: 40 mg/l, sprayed twice; 2 weeks after pathogen inoculation
# Description: […] The control was tomato plants watered only with water. […] The suspension was prepared from culture on solid medium. Protection against biotic stress was evaluated by comparing the area of leaves affected by infection.
# Proceeded in the way as described in Example 34, with the difference that plants were sprayed and not watered.
compound,measurement,setting,value
C[N+](C)(C)CCO.O=C([O-])c1cc(Br)cc(Br)c1O,% reduction in necrotic spots compared to control,powdery mildew fungus [1],72%
same,% reduction in necrotic spots compared to control,Brome Mosaic Virus (BMV),38%
C[N+](C)(C)CCO.O=C([O-])c1cc(F)cc(F)c1O,% reduction in necrotic spots compared to control,powdery mildew fungus [1],70%
same,% reduction in necrotic spots compared to control,Brome Mosaic Virus (BMV),27%
C[N+](C)(C)CCO.O=C([O-])c1cc(I)cc(I)c1O,% reduction in necrotic spots compared to control,powdery mildew fungus [1],78%
same,% reduction in necrotic spots compared to control,Brome Mosaic Virus (BMV),46%
2-bromoethyl(trimethyl)ammonium 3-chlorosalicylate,% reduction in necrotic spots compared to control,powdery mildew fungus [1],54%
same,% reduction in necrotic spots compared to control,Brome Mosaic Virus (BMV),95%
2-chloroethyl(trimethyl)ammonium 3-chlorosalicylate,% reduction in necrotic spots compared to control,powdery mildew fungus [1],57%
same,% reduction in necrotic spots compared to control,Brome Mosaic Virus (BMV),36%
2-ethoxyethyl(trimethyl)ammonium 3-chlorosalicylate,% reduction in necrotic spots compared to control,powdery mildew fungus [1],55%
same,% reduction in necrotic spots compared to control,TMV [2]; 10 mg/L,26%
same,% reduction in necrotic spots compared to control,TMV [2]; 40 mg/L,26%
same,% reduction in necrotic spots compared to control,TMV [2]; 80 mg/L,30%
2-fluoroethyl(trimethyl)ammonium 3-chlorosalicylate,% reduction in necrotic spots compared to control,powdery mildew fungus [1],36%
same,% reduction in necrotic spots compared to control,Brome Mosaic Virus (BMV),56%
2-hydroxyethyl(tributyl)ammonium 3-chlorosalicylate,% reduction in necrotic spots compared to control,powdery mildew fungus [1],66%
same,% reduction in necrotic spots compared to control,TMV [3]; 10 mg/L,26%
same,% reduction in necrotic spots compared to control,TMV [3]; 40 mg/L,26%
same,% reduction in necrotic spots compared to control,TMV [3]; 80 mg/L,30%
2-hydroxyethyl(tridecyl)ammonium 3-chlorosalicylate,% reduction in necrotic spots compared to control,powdery mildew fungus [1],64%
same,% reduction in necrotic spots compared to control,TMV [3]; 10 mg/L,25%
same,% reduction in necrotic spots compared to control,TMV [3]; 40 mg/L,46%
same,% reduction in necrotic spots compared to control,TMV [3]; 80 mg/L,65%
2-hydroxyethyl(tridodecyl)ammonium 3-chlorosalicylate,% reduction in necrotic spots compared to control,powdery mildew fungus [1],47%
same,% reduction in necrotic spots compared to control,TMV [3]; 10 mg/L,59%
same,% reduction in necrotic spots compared to control,TMV [3]; 40 mg/L,64%
same,% reduction in necrotic spots compared to control,TMV [3]; 80 mg/L,89%
2-hydroxyethyl(triethyl)ammonium 3-chlorosalicylate,% reduction in necrotic spots compared to control,powdery mildew fungus [1],58%
same,% reduction in necrotic spots compared to control,TMV [3]; 10 mg/L,15%
same,% reduction in necrotic spots compared to control,TMV [3]; 40 mg/L,26%
same,% reduction in necrotic spots compared to control,TMV [3]; 80 mg/L,37%
2-iodoethyl(trimethyl)ammonium 3-chlorosalicylate,% reduction in necrotic spots compared to control,powdery mildew fungus [1],47%
same,% reduction in necrotic spots compared to control,Brome Mosaic Virus (BMV),64%
2-methoxyethyl(trimethyl)ammonium 3-chlorosalicylate,% reduction in necrotic spots compared to control,powdery mildew fungus [1],67%
same,% reduction in necrotic spots compared to control,TMV [2]; 10 mg/L,15%
same,% reduction in necrotic spots compared to control,TMV [2]; 40 mg/L,26%
same,% reduction in necrotic spots compared to control,TMV [2]; 80 mg/L,37%
CC(=O)Oc1c(Cl)cccc1C(=O)[O-].C[N+](C)(C)CCO [choline 2-acetoxy-3-chlorobenzoate],% reduction in necrotic spots compared to control,powdery mildew fungus [1],45%
same,% reduction in necrotic spots compared to control,[4]; 10 mg/L,>10%
same,% reduction in necrotic spots compared to control,[4]; 40 mg/L,28%
same,% reduction in necrotic spots compared to control,[4]; 80 mg/L,35%
CC(=O)Oc1ccccc1C(=O)[O-].C[N+](C)(C)CCO [choline 2-acetoxybenzoate],% reduction in necrotic spots compared to control,powdery mildew fungus [1],52%
same,% reduction in necrotic spots compared to control,[4]; 10 mg/L,25%
same,% reduction in necrotic spots compared to control,[4]; 40 mg/L,29%
same,% reduction in necrotic spots compared to control,[4]; 80 mg/L,69%
CCOc1c(Cl)cccc1C(=O)[O-].C[N+](C)(C)CCO [choline 2-ethoxy-3-chlorobenzoate],% reduction in necrotic spots compared to control,powdery mildew fungus [1],43%
same,% reduction in necrotic spots compared to control,[4]; 10 mg/L,24%
same,% reduction in necrotic spots compared to control,[4]; 40 mg/L,33%
same,% reduction in necrotic spots compared to control,[4]; 80 mg/L,39%
CCOc1ccccc1C(=O)[O-].C[N+](C)(C)CCO [choline 2-ethoxybenzoate],% reduction in necrotic spots compared to control,powdery mildew fungus [1],43%
same,% reduction in necrotic spots compared to control,[4]; 10 mg/L,56%
same,% reduction in necrotic spots compared to control,[4]; 40 mg/L,60%
same,% reduction in necrotic spots compared to control,[4]; 80 mg/L,82%
COc1c(Cl)cccc1C(=O)[O-].C[N+](C)(C)CCO [choline 2-methoxy-3-chlorobenzoate],% reduction in necrotic spots compared to control,powdery mildew fungus [1],49%
same,% reduction in necrotic spots compared to control,[4]; 10 mg/L,>10%
same,% reduction in necrotic spots compared to control,[4]; 40 mg/L,25%
same,% reduction in necrotic spots compared to control,[4]; 80 mg/L,39%
COc1ccccc1C(=O)[O-].C[N+](C)(C)CCO [choline 2-methoxybenzoate],% reduction in necrotic spots compared to control,powdery mildew fungus [1],44%
same,% reduction in necrotic spots compared to control,[4]; 10 mg/L,54%
same,% reduction in necrotic spots compared to control,[4]; 40 mg/L,68%
same,% reduction in necrotic spots compared to control,[4]; 80 mg/L,67%
C[N+](C)(C)CCO.O=C([O-])c1cccc(Br)c1O [choline 3-bromosalicylate],% reduction in necrotic spots compared to control,powdery mildew fungus [1],72%
same,% reduction in necrotic spots compared to control,Brome Mosaic Virus (BMV),21%
C[N+](C)(C)CCO.O=C([O-])c1c(Br)ccc(Cl)c1O [choline 3-chloro-6-bromosalicylate],Reduction in necrotic spots (white patches) compared to control,powdery mildew fungus [5],49%
same,% reduction in necrotic spots compared to control,[4]; 10 mg/L,24%
same,% reduction in necrotic spots compared to control,[4]; 40 mg/L,29%
same,% reduction in necrotic spots compared to control,[4]; 80 mg/L,40%
C[N+](C)(C)CCO.O=C([O-])c1c(F)ccc(Cl)c1O [choline 3-chloro-6-fluorosalicylate],Reduction in necrotic spots (white patches) compared to control,powdery mildew fungus [5],45%
same,% reduction in necrotic spots compared to control,[4]; 10 mg/L,19%
same,% reduction in necrotic spots compared to control,[4]; 40 mg/L,28%
same,% reduction in necrotic spots compared to control,[4]; 80 mg/L,47%
C[N+](C)(C)CCO.O=C([O-])c1c(I)ccc(Cl)c1O [choline 3-chloro-6-iodosalicylate],Reduction in necrotic spots (white patches) compared to control,powdery mildew fungus [5],47%
C[N+](C)(C)CCO.O=C([O-])c1cccc(F)c1O [choline 3-fluorosalicylate],% reduction in necrotic spots compared to control,powdery mildew fungus [1],52%
same,% reduction in necrotic spots compared to control,Brome Mosaic Virus (BMV),56%
C[N+](C)(C)CCO.O=C([O-])c1cccc(I)c1O [choline 3-iodosalicylate],% reduction in necrotic spots compared to control,powdery mildew fungus [1],69%
same,% reduction in necrotic spots compared to control,Brome Mosaic Virus (BMV),77%
C[N+](C)(C)CCO.O=C([O-])c1cc(Br)ccc1O [choline 5-bromosalicylate],% reduction in necrotic spots compared to control,powdery mildew fungus [1],79%
same,% reduction in necrotic spots compared to control,Brome Mosaic Virus (BMV),69%
C[N+](C)(C)CCO.O=C([O-])c1cc(F)ccc1O [choline 5-fluorosalicylate],% reduction in necrotic spots compared to control,powdery mildew fungus [1],54%
same,% reduction in necrotic spots compared to control,Brome Mosaic Virus (BMV),88%
C[N+](C)(C)CCO.O=C([O-])c1cc(I)ccc1O [choline 5-iodosalicylate],% reduction in necrotic spots compared to control,powdery mildew fungus [1],65%
same,% reduction in necrotic spots compared to control,Brome Mosaic Virus (BMV),35%
ethyl(trimethyl)ammonium 3-chlorosalicylate,% reduction in necrotic spots compared to control,powdery mildew fungus [1],63%
same,% reduction in necrotic spots compared to control,TMV [2]; 10 mg/L,25%
same,% reduction in necrotic spots compared to control,TMV [2]; 40 mg/L,46%
same,% reduction in necrotic spots compared to control,TMV [2]; 80 mg/L,65%
